The source of these data is patent US10544143B2, “4-azaindole compounds” (BRISTOL-MYERS SQUIBB COMPANY, priority 2017, dated 2020).

The target of one experiment is human TLR9 (Homo sapiens (Human), UniProt Q9NR96). As to the kind of experiment: TLR9 inhibition reporter assay (HEK-Blue SEAP).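 Further: SEAP driven by an IFN-β minimal promoter with NF-κB and AP-1 sites, read after 22 h, compounds dosed 0.05 nM–50 µM, inhibition scaled between agonist plus DMSO and reference-inhibitor wells.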 The settings on record: read-out: TLR9 IC50; HEK-Blue cells overexpressing human TLR9, SEAP reporter, ODN2006 5 nM. A general note: In a reporter assay the amount or activity of a reporter protein is the signal.
The next experiment deals with human TLR7 (Homo sapiens (Human), UniProt Q9NYK1). In words: TLR7 inhibition reporter assay (HEK-Blue SEAP). The format is cell-based. The settings on record: HEK-Blue cells overexpressing human TLR7, SEAP reporter, gardiquimod 7.5 μM.
The next experiment addresses human TLR8 (Homo sapiens (Human), UniProt Q9NR97). In words: TLR8 inhibition reporter assay (HEK-Blue SEAP).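 Further: SEAP driven by IFN-β minimal promoter carrying NF-κB and AP-1 sites, compounds dosed 0.05 nM to 50 µM for 22 h, inhibition scaled between agonist-plus-DMSO and reference-inhibitor wells.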 The settings on record: read-out: TLR8 IC50; HEK-Blue cells overexpressing human TLR8, SEAP reporter, R848 15.9 μM.

pIC50: −log10 of the molar value.

Sequence of human TLR7 (Q9NYK1 27-1049): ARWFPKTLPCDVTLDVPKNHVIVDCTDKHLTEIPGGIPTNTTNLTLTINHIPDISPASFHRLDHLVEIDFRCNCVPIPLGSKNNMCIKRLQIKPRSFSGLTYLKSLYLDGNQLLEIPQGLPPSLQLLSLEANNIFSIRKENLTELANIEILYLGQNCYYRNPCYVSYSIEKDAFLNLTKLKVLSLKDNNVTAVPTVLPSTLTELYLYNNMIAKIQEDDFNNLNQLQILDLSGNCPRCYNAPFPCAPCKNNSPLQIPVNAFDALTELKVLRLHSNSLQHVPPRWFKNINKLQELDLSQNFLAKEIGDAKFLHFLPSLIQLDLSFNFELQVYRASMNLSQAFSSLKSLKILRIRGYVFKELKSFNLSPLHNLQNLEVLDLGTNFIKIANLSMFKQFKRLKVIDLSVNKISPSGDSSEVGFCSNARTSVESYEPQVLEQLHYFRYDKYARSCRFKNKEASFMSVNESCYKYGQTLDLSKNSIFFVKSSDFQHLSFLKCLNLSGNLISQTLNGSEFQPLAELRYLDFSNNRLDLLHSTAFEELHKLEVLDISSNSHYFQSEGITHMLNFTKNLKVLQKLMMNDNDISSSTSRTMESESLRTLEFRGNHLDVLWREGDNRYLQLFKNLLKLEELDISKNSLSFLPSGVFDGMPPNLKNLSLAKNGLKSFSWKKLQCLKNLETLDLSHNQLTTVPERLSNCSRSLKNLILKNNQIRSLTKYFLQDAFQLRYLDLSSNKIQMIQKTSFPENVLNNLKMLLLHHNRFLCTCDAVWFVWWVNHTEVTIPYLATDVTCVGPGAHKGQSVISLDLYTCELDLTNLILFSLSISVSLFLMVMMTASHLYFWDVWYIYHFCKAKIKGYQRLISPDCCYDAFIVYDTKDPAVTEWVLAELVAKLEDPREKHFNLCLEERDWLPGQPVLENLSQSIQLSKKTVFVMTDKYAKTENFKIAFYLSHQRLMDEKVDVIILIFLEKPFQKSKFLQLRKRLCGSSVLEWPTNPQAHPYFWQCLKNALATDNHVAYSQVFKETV
Sequence of human TLR8 (Q9NR97 27-1041): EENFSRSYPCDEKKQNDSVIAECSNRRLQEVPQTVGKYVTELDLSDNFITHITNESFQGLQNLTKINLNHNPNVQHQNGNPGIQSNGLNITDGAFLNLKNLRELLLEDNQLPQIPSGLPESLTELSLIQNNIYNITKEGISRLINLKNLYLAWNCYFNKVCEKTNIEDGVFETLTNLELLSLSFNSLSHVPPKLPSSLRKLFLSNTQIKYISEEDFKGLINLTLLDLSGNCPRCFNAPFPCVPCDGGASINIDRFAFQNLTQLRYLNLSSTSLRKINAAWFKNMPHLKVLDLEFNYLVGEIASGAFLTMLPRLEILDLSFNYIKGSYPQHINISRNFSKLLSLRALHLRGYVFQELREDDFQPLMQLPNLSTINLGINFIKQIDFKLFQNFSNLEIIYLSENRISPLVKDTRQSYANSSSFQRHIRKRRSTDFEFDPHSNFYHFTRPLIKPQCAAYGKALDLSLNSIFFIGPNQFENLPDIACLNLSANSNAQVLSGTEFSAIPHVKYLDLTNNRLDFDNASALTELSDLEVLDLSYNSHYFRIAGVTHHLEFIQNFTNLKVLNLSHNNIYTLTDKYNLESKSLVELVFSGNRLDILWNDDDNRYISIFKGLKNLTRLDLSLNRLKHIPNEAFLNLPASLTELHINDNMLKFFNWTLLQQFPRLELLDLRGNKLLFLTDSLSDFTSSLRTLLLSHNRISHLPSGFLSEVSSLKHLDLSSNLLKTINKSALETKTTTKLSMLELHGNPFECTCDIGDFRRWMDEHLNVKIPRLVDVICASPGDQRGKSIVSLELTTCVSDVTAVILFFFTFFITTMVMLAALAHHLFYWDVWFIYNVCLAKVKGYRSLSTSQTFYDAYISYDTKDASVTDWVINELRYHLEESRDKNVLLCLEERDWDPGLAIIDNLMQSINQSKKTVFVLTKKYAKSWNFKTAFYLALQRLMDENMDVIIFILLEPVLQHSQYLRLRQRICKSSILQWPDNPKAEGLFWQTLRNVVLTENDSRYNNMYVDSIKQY
Sequence of human TLR9 (Q9NR96 26-1032): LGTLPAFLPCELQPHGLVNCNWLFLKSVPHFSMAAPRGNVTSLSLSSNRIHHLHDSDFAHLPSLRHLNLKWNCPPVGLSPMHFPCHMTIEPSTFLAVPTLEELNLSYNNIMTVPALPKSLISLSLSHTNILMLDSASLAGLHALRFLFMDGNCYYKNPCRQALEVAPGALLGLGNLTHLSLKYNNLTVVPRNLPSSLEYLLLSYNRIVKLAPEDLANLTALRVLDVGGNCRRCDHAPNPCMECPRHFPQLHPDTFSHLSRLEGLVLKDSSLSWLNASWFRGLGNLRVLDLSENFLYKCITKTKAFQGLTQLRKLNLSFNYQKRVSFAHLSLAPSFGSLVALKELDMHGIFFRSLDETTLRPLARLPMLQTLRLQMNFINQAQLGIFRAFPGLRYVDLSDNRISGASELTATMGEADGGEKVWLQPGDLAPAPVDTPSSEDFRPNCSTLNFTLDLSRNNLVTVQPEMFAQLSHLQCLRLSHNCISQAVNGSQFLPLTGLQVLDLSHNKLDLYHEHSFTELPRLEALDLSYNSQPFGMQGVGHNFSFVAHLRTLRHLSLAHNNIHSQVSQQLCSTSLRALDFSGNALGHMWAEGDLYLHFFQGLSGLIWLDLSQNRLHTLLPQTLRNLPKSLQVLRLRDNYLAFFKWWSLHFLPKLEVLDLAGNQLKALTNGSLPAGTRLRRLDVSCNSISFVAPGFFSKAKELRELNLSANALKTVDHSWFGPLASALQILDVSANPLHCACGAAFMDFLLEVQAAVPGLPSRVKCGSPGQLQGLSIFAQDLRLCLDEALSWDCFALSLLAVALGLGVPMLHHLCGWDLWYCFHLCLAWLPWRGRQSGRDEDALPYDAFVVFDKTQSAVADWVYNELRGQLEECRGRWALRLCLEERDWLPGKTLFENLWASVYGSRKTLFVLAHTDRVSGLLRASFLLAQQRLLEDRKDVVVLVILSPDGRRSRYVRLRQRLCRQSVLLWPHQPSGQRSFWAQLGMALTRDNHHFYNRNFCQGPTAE

Consider `COc1cc(-c2[nH]c3ccc(C4CN(C(=O)CN(C)C)CCO4)nc3c2C(C)C)cn2ncnc12` (stereo not drawn) [Example 668], for which the results for the negative logarithm of the IC50 (pIC50) on human TLR9, on human TLR7 and on human TLR8 were 4.76, 8.77 and 7.66, respectively.

Regarding `Cc1cc(-c2[nH]c3ccc(C4CNCCO4)nc3c2C(C)C)cn(C)c1=O` (stereo not drawn) [Example 669], the negative-log IC50 (pIC50) at human TLR9 was 4.50; against human TLR7 it was 8.13; at human TLR8, 8.25.

`Cc1cc(-c2[nH]c3ccc(C4CN(CC#N)CCO4)nc3c2C(C)C)cn(C)c1=O` (stereo not drawn) [Example 670]: the pIC50 at human TLR9 is below 4.30; against human TLR7 it was 7.25; on human TLR8, 7.24.

As for `COc1cc(-c2[nH]c3ccc(C4CNCCO4)nc3c2C(C)C)cn2ncnc12` (stereo not drawn) [Example 671, 2-(3-isopropyl-2-(8-methoxy-[1,2,4]triazolo[1,5-a]pyridin-6-yl)-1H-pyrrolo[3,2-b]pyridin-5-yl)morpholine], the results for the pIC50 at human TLR9, against human TLR7 and at human TLR8 were 5.35, 8.85 and 8.68, respectively.

For the compound `COc1cc(-c2[nH]c3ccc(C4CN(C(=O)CCN(C)C)CCO4)nc3c2C(C)C)cn2ncnc12` (stereo not drawn) [Example 672], the negative-log IC50 (pIC50) at human TLR9 is 5.20; on human TLR7, 8.33; at human TLR8, 7.05.

With `Cc1c(-c2[nH]c3ccc(C4CN(C)CCO4)nc3c2C(C)C)cn2ncnc2c1C` (stereo not drawn) [Example 673], the pIC50 at human TLR9 is 4.84; against human TLR7, 8.28; on human TLR8, 8.16.

Consider `Cc1c(-c2[nH]c3ccc(C4CN(CCS(C)(=O)=O)CCO4)nc3c2C(C)C)cn2ncnc2c1C` (stereo not drawn) [Example 674], for which the pIC50 on human TLR9 was below 4.30; at human TLR7, 7.49; on human TLR8 it was 7.32.

As to `Cc1cc(-c2[nH]c3ccc(C4CNCCO4)nc3c2C(C)C)cn(C)c1=O` (stereo not drawn) [Example 675], the pIC50 at human TLR9 is 4.84; against human TLR7, 8.01; at human TLR8, 8.34.

For `COc1cc(-c2[nH]c3ccc(C4CNCCO4)nc3c2C(C)C)cn2ncnc12` (stereo not drawn) [Example 676], the negative-log IC50 (pIC50) is 5.24 on human TLR9, 9.00 against human TLR7 and 8.60 at human TLR8.

In the case of `Cc1cc(-c2[nH]c3ccc(C4CN(C(=O)CN(C)C)CCO4)nc3c2C(C)C)cn(C)c1=O` (stereo not drawn) [Example 677], the negative-log IC50 (pIC50) was below 4.30 at human TLR9, 7.77 at human TLR7 and 7.28 on human TLR8.

As to `Cc1cc(-c2[nH]c3ccc(C4CN(C(C)C)CCO4)nc3c2C(C)C)cn(C)c1=O` (stereo not drawn) [Example 678], the pIC50 at human TLR9 was below 4.30; against human TLR7, 7.44; at human TLR8 it was 7.54.

For `Cc1cc(-c2[nH]c3ccc(C4CNCCO4)nc3c2C(C)C)cn(C)c1=O` (stereo not drawn) [Example 679], the negative-log IC50 (pIC50) on human TLR9 is 4.69; against human TLR7 it was 7.80; on human TLR8, 8.24.

Take `Cc1c(-c2[nH]c3ccc(C4CNCCN4)nc3c2C(C)C)cn2ncnc2c1C` (stereo not drawn) [Example 680, 6-(3-isopropyl-5-(piperazin-2-yl)-1H-pyrrolo[3,2-b]pyridin-2-yl)-7,8-dimethyl-[1,2,4]triazolo[1,5-a]pyridine]: the pIC50 at human TLR9 is 5.98; at human TLR7, 7.92; on human TLR8 it was 8.28.

Consider `Cc1cc(-c2[nH]c3ccc(CCN4CCCCC4)nc3c2C(C)C)cn2ncnc12` [Example 681], for which the pIC50 at human TLR9 is 5.37; at human TLR7 it was 6.98; on human TLR8, 6.70.

Regarding `COc1cc(-c2[nH]c3ccc(CCN4CCCCC4)nc3c2C(C)C)cn2ncnc12` [Example 682], the pIC50 on human TLR9 is 5.98; against human TLR7, 7.80; on human TLR8, 7.62.

In the case of `CC(C)c1c(-c2cn(C)c3ncccc23)[nH]c2ccc(CCC3CN(CC(=O)N(C)C)C3)nc12` [Example 683], the negative logarithm of the IC50 (pIC50) on human TLR9 is 6.49; at human TLR7, 7.92; at human TLR8 it was 7.89.

Turning to `CC(C)c1c(-c2cn(C)c3ncccc23)[nH]c2ccc(CCC3CN(CCS(C)(=O)=O)C3)nc12` [Example 684], the negative logarithm of the IC50 (pIC50) was 6.44 at human TLR9, 7.85 against human TLR7 and 7.89 on human TLR8.

On to `Cc1c(-c2[nH]c3ccc(CCC4CN(C(=O)CN(C)C)C4)nc3c2C(C)C)cn2ncnc2c1C` [Example 685], for which the values for the pIC50 at human TLR9, against human TLR7 and on human TLR8 were 5.80, 7.49 and 7.41, respectively.

Consider `Cc1c(-c2[nH]c3ccc(CCC4CN(C5COC5)C4)nc3c2C(C)C)cn2ncnc2c1C` [Example 686], for which the negative-log IC50 (pIC50) at human TLR9 was below 4.30; against human TLR7, below 5.51; on human TLR8, below 5.51.

As to `Cc1c(-c2[nH]c3ccc(CCC4CN(C5COC5)C4)nc3c2C(C)C)cn2ncnc2c1C` [Example 687], the pIC50 at human TLR9 is 5.24; against human TLR7 it was 7.41; on human TLR8, 7.80.

As for `COc1cc(-c2[nH]c3ccc(CCC4CN(CC(=O)N(C)C)C4)nc3c2C(C)C)cn2ncnc12` [Example 689], the negative logarithm of the IC50 (pIC50) is 6.36 on human TLR9, 7.96 on human TLR7 and 7.38 at human TLR8.

Turning to `CC(C)c1c(-c2cn(C)c3ncccc23)[nH]c2ccc(CCC3CNC3)nc12` [Example 690], the figures for the pIC50 on human TLR9, on human TLR7 and at human TLR8 were 6.54, 7.82 and 7.51, respectively.

On to `CC(C)c1c(-c2cn(C)c3ncccc23)[nH]c2ccc(CCC3CN(CC4(C)COC4)C3)nc12` [Example 691], for which the pIC50 at human TLR9 is 6.50; against human TLR7, 7.96; on human TLR8, 8.04.

As for `Cc1c(-c2[nH]c3ccc(CCC4CNC4)nc3c2C(C)C)cn2ncnc2c1C` [Example 692], the pIC50 at human TLR9 is 5.82; on human TLR7 it was 7.37; at human TLR8, 7.24.

As for `COc1cc(-c2[nH]c3ccc(CCC4CN(CC(C)(C)O)C4)nc3c2C(C)C)cn2ncnc12` [Example 693], the results for the negative logarithm of the IC50 (pIC50) at human TLR9, against human TLR7 and on human TLR8 were 6.36, 8.19 and 7.82, respectively.

For `CC(C)c1c(-c2cn(C)c3ncccc23)[nH]c2ccc(CCC3CN(C4COC4)C3)nc12` [Example 694], the figures for the negative-log IC50 (pIC50) on human TLR9, on human TLR7 and on human TLR8 were 4.84, 5.64 and 5.55, respectively.

Take `Cc1c(-c2[nH]c3ccc(CCC4CN(CCS(C)(=O)=O)C4)nc3c2C(C)C)cn2ncnc2c1C` [Example 695]: the pIC50 on human TLR9 is 5.40; against human TLR7, 7.38; on human TLR8 it was 7.70.

Take `Cc1c(-c2[nH]c3ccc(CCC4CN(CC(=O)N(C)C)C4)nc3c2C(C)C)cn2ncnc2c1C` [Example 696]: the negative logarithm of the IC50 (pIC50) on human TLR9 is 5.88; on human TLR7, 7.12; on human TLR8 it was 7.44.

For the compound `COc1cc(-c2[nH]c3ccc(CCC4CNC4)nc3c2C(C)C)cn2ncnc12` [Example 697], the results for the pIC50 on human TLR9, against human TLR7 and on human TLR8 were 6.04, 7.70 and 6.95, respectively.

Turning to `COc1cc(-c2[nH]c3ccc(CCC4CN(CCS(C)(=O)=O)C4)nc3c2C(C)C)cn2ncnc12` [Example 698], the values for the pIC50 on human TLR9, against human TLR7 and on human TLR8 were 6.00, 7.92 and 7.55, respectively.

With `COc1cc(-c2[nH]c3ccc(CCC4CN(C(=O)CN(C)C)C4)nc3c2C(C)C)cn2ncnc12` [Example 699], the pIC50 on human TLR9 is 6.37; against human TLR7, 7.92; at human TLR8, 7.34.

On to `COc1cc(-c2[nH]c3ccc(CCC4CN(C5COC5)C4)nc3c2C(C)C)cn2ncnc12` [Example 700], for which the results for the pIC50 on human TLR9, against human TLR7 and on human TLR8 were 5.63, 7.59 and 7.37, respectively.

As a reminder, the pIC50 is −log10 of the IC50, conventionally taken in molar units.
